# Test results reported in PMC2682573, “A Novel Two Mode-Acting Inhibitor of ABCG2-Mediated Multidrug Transport and Resistance in Cancer Chemotherapy” (PLoS ONE, 2009).
# Columns and labels:
# [1] = target: T1, ABCG2 (Homo sapiens, UniProt Q9UNQ0); assay: mitoxantrone accumulation ([…]) and 5D3 conformational staining ([…]) in HEK293/ABCG2 cells; format: cell-based
# T1 sequence (Q9UNQ0 1-655): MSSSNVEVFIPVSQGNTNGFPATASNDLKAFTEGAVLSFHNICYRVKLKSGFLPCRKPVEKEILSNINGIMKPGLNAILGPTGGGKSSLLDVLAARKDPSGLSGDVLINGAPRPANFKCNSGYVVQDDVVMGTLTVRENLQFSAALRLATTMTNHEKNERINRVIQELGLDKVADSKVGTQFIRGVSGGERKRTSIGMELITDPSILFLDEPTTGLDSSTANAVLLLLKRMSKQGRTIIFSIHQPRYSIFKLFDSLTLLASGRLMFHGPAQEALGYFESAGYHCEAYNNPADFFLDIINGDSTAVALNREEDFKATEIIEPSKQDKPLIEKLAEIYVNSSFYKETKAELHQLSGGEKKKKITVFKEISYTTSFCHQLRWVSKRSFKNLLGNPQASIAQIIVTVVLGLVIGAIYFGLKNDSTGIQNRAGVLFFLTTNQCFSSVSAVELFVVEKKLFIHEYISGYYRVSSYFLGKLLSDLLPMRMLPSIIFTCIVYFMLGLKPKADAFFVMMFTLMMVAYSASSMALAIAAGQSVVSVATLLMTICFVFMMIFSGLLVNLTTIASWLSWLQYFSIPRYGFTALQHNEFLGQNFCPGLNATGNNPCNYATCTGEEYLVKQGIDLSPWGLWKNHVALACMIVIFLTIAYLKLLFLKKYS
# [2] = target: T1, ABCG2; settings: hek293/abcg2 inside-out membrane vesicles
# [3] = target: T1, ABCG2; assay: reference inhibitor; mitoxantrone accumulation, 5D3 conformational staining and sensitization IC50 in HEK293/ABCG2 cells; format: cell-based
smiles,measurement,setting,value
CC(C)(C)NC(=O)CSc1nc2ccc(Nc3nc(N4CCOCC4)nc(N4CCOCC4)n3)cc2s1 [C6],mitoxantrone accumulation (3 μM) and 5D3 conformational staining (10 μM) in HEK2,[1],All three analogues had similar activity as PZ-39 in enhancing mitoxantrone accumulation
O=C1c2c(O)ccc(O)c2C(=O)c2c(NCCNCCO)ccc(NCCNCCO)c21 [mitoxantrone],Km,[2],2.3 µM
"COc1ccc2c3c([nH]c2c1)[C@H](C=C(C)C)N1C(=O)[C@@H]2CCCN2C(=O)[C@@H]1C3 [FTC, Fumitremorgin C]",IC50 (μM) / Inhibitor+MX ^a,[3],0.387 ± 0.054 µM
O=C(CSc1nc2ccc(Nc3nc(Nc4ccccc4)nc(Nc4ccccc4)n3)cc2s1)N1CCCC1 [E2],mitoxantrone accumulation (3 μM) and 5D3 conformational staining (10 μM) in HEK2,[1],All three analogues had similar activity as PZ-39 in enhancing mitoxantrone accumulation
CC(=O)CSc1nc2ccc(Nc3nc(N4CCOCC4)nc(N4CCOCC4)n3)cc2s1 [C8],mitoxantrone accumulation (3 μM) and 5D3 conformational staining (10 μM) in HEK2,[1],All three analogues had similar activity as PZ-39 in enhancing mitoxantrone accumulation
